Measured values published in US6472349B1, “Pyridine-2,3-dicarboxylic acid diamides” (BASF Aktiengesellschaft, priority 1999, dated 2002).

Columns and labels:
[1] = tested on: GALAP; test: Herbicidal activity post-emergence in greenhouse, catchweed bedstraw; assay type: in vivo; settings: application rate 0.5 kg of a.s./ha, 100 = complete destruction, 0 = no damage
Excerpt: (§1) The herbicidal action of the pyridine-2,3-dicarboxamides of the formula I was examined in greenhouse experiments: […]
(§2) The growing containers used were plastic pots containing loamy sand with approximately 3.0% of humus as the substrate. The seeds of the test plants were sown separately for each species.
(§3) For the post-emergence treatment, the test plants were first grown to a plant height of 3 to 15 cm, depending on the growth habit, and then treated with the active ingredients which had been suspended or emulsified in water. The test plants were either sown directly and grown in the same containers or first grown separately as seedlings and transplanted into the test containers a few days prior to treatment. The rate of application for the post-emergence treatment was 0.5; 0.0625; 0.0313 or 0.0156 kg/ha of a.s.
(§4) Depending on the species, the plants were kept at 10-25° C. or 20-35° C. The test period extended over 2 to 4 weeks. During this time, the plants were tended, and their response to the individual treatments was evaluated.
(§5) Evaluation was carried out using a scale from 0 to 100. 100 means no emergence of the plants or complete destruction of at least the above-ground parts, and 0 means no damage or normal course of growth.
(§6) The plants used in the greenhouse experiments belonged to the following species: […]

[2] = tested on: ECGCG; test: Herbicidal activity post-emergence in greenhouse, barnyard grass; assay type: in vivo; settings: application rate 0.5 kg of a.s./ha, 100 = complete destruction, 0 = no damage
Excerpt: as §1, §2, §3, §4, §5, §6

[3] = tested on: IPOSS; test: Herbicidal activity post-emergence in greenhouse, morning glory; assay type: in vivo; settings: 100 = complete destruction, 0 = no damage
Excerpt: as §1, §2, §3, §4, §5, §6

[4] = tested on: VIOAR; test: Herbicidal activity post-emergence in greenhouse, violet; assay type: in vivo; settings: application rate 0.5 kg of a.s./ha, 100 = complete destruction, 0 = no damage
Excerpt: as §1, §2, §3, §4, §5, §6

[5] = tested on: SOLNI; test: Herbicidal activity post-emergence in greenhouse, black nightshade; assay type: in vivo; settings: 100 = complete destruction, 0 = no damage
Excerpt: as §1, §2, §3, §4, §5, §6

[6] = tested on: AMARE; test: Herbicidal activity post-emergence in greenhouse, redroot pigweed; assay type: in vivo; settings: 100 = complete destruction, 0 = no damage
Excerpt: as §1, §2, §3, §4, §5, §6

[7] = tested on: ALOMY; test: Herbicidal activity post-emergence in greenhouse, blackgrass; assay type: in vivo; settings: 100 = complete destruction, 0 = no damage
Excerpt: as §1, §2, §3, §4, §5, §6

[8] = application rate 0.0313 kg of a.s./ha
[9] = application rate 0.0625 kg of a.s./ha

CCCNC(=O)c1nc(Cl)c(C)cc1C(=O)Nc1cccc(Cl)c1C
Herbicidal activity (scale 0 to 100), GALAP [1]: 100
Herbicidal activity (scale 0 to 100), ECHCG [2]: 100
Herbicidal activity (scale 0 to 100), IPOSS ([3]; application rate 0.5 kg of a.s./ha): 100
Herbicidal activity (scale 0 to 100), VIOAR [4]: 100

CCCNC(=O)c1nc(C)ccc1C(=O)Nc1cccc2ccccc12 [Example 1, N-n-Propyl-3-(1-naphthyl)aminocarbonyl-6-methylpyridine-2-carboxamide]
melting point: 175 to 178 °C

Cc1ccc2c(n1)C(=O)N(c1cccc(S(C)(=O)=O)c1C)C2=O [Example 3, N-(2-Methyl-3-methylsulfonylphenyl)-6-methylpyridine-2,3-dicarboximide]
melting point: 180 to 181 °C

CCCNC(=O)c1nc(OC)c(Cl)cc1C(=O)Nc1cccc(Cl)c1C
Herbicidal activity (scale 0 to 100), SOLNI [5, 8]: 100
Herbicidal activity (scale 0 to 100), SOLNI [5, 9]: 100
Herbicidal activity (scale 0 to 100), AMARE [6, 8]: 98
Herbicidal activity (scale 0 to 100), AMARE [6, 9]: 100
Herbicidal activity (scale 0 to 100), IPOSS [3, 8]: 98
Herbicidal activity (scale 0 to 100), IPOSS [3, 9]: 100
Herbicidal activity (scale 0 to 100), ALOMY [7, 8]: 75
Herbicidal activity (scale 0 to 100), ALOMY [7, 9]: 85

CCCNC(=O)c1nc(C)ccc1C(=O)Nc1cccc2ccccc12 [drawing 67]
Herbicidal activity (scale 0 to 100), AMARE [6, 8]: 98
Herbicidal activity (scale 0 to 100), AMARE [6, 9]: 100
Herbicidal activity (scale 0 to 100), IPOSS [3, 8]: 98
Herbicidal activity (scale 0 to 100), IPOSS [3, 9]: 100
Herbicidal activity (scale 0 to 100), ALOMY [7, 8]: 75
Herbicidal activity (scale 0 to 100), ALOMY [7, 9]: 85

CCCNC(=O)c1nc(C)ccc1C(=O)Nc1cccc(SC)c1C [Example 2, N-n-Propyl-3-(2-methyl-3-methylthiophenyl)aminocarbonyl-6-methylpyridine-2-carboxamide]
melting point: 151 to 152 °C
